Source: patent publication US20220132852A1, “PESTICIDALLY ACTIVE HETEROCYCLIC DERIVATIVES WITH SULFUR CONTAINING SUBSTITUENTS” (SYNGENTA CROP PROTECTION AG, priority 2019, published 2022)

Assays:
[1] = tested on: Myzus persicae (Green Peach Aphid); experiment: whole plant or invertebrate; assay type: in vivo; settings: foliar, 144 h, application rate 200 ppm, sprayed sunflower leaf discs, mixed ages, 6 days after infestation
Protocol: Example B4: Activity Against Myzus persicae (Green Peach Aphid) Feeding/Contact Activity
Sunflower leaf discs were placed onto agar in a 24-well microtiter plate and sprayed with aqueous test solutions prepared from 10′000 ppm DMSO stock solutions. After drying, the leaf discs were infested with an aphid population of mixed ages. The samples were assessed for mortality 6 days after infestation.

[2] = tested on: Diabrotica balteata (Corn Root Worm); experiment: Example B1: Activity against Diabrotica balteata (corn root worm), sprayed maize sprouts; assay type: in vivo; settings: 96 h, application rate 200 ppm, L2 larvae on sprayed maize sprouts, 4 days after infestation, read-out: effect in at least one of the two categories (mortality or growth inhibition)
Protocol: Example B1: Activity Against Diabrotica balteata (Corn Root Worm)
Maize sprouts placed onto an agar layer in 24-well microtiter plates were treated with aqueous test solutions prepared from 10′000 ppm DMSO stock solutions by spraying. After drying, the plates were infested with L2 larvae (6 to 10 per well). The samples were assessed for mortality and growth inhibition in comparison to untreated samples 4 days after infestation.

[3] = tested on: Plutella xylostella (Diamond Back Moth); experiment: Example B3: Activity against Plutella xylostella (diamond back moth), artificial diet; assay type: in vivo; settings: 192 h, application rate 200 ppm, eggs on artificial diet, 8 days after infestation, read-out: effect in at least one of the two categories (mortality or growth inhibition)
Protocol: Example B3: Activity Against Plutella xylostella (Diamond Back Moth)
24-well microtiter plates with artificial diet were treated with aqueous test solutions prepared from 10′000 ppm DMSO stock solutions by pipetting. After drying, Plutella eggs were pipetted through a plastic stencil onto a gel blotting paper and the plate was closed with it. The samples were assessed for mortality and growth inhibition in comparison to untreated samples 8 days after infestation. The following compounds gave an effect of at least 80% in at least one of the two categories (mortality or growth inhibition) at an application rate of 200 ppm: P2, P4, P5, P6, P8, P9, P10, P11, P12, P14, P15, P16, P17, P18, P19, P20, P21, P22, P23, P24, P25, P26, P27, P28, P29, P30, P31, P32, P33, P34, P35, P36, P38, P39, P40, P42, P45, P46, P47, P49, P50, P51, P52.

[4] = tested on: Myzus persicae (Green Peach Aphid); experiment: Example B5: Activity against Myzus persicae (green peach aphid), systemic activity; assay type: in vivo; settings: 144 h, test rate 24 ppm, roots of pea seedlings in test solution, mixed ages, 6 days
Protocol: Example B5: Activity Against Myzus persicae (Green Peach Aphid) Systemic Activity
Roots of pea seedlings infested with an aphid population of mixed ages were placed directly into aqueous test solutions prepared from 10′000 DMSO stock solutions. The samples were assessed for mortality 6 days after placing seedlings into test solutions.

[5] = tested on: Spodoptera littoralis (Egyptian Cotton Leaf Worm); experiment: Example B6: Activity against Spodoptera littoralis (Egyptian cotton leaf worm); assay type: in vivo; settings: foliar, 72 h, application rate 200 ppm, L1 larvae on sprayed cotton leaf discs, 3 days after infestation, read-out: control (mortality, anti-feeding effect or growth inhibition)
Protocol: Example B6: Activity Against Spodoptera littoralis (Egyptian Cotton Leaf Worm)
Cotton leaf discs were placed onto agar in 24-well microtiter plates and sprayed with aqueous test solutions prepared from 10′000 ppm DMSO stock solutions. After drying the leaf discs were infested with five L1 larvae. The samples were assessed for mortality, anti-feeding effect, and growth inhibition in comparison to untreated samples 3 days after infestation. Control of Spodoptera littoralis by a test sample is given when at least one of the categories mortality, anti-feedant effect, and growth inhibition is higher than the untreated sample.

[6] = tested on: Euschistus heros (Neotropical Brown Stink Bug); experiment: Example B2: Activity against Euschistus heros (neotropical brown stink bug), sprayed soybean leaves; assay type: in vivo; settings: 120 h, application rate 200 ppm, N2 nymphs on sprayed soybean leaves, 5 days after infestation, read-out: effect in at least one of the two categories (mortality or growth inhibition)
Protocol: Example B2: Activity Against Euschistus heros (Neotropical Brown Stink Bug)
Soybean leaves on agar in 24-well microtiter plates were sprayed with aqueous test solutions prepared from 10′000 ppm DMSO stock solutions. After drying the leaves were infested with N2 nymphs. The samples were assessed for mortality and growth inhibition in comparison to untreated samples 5 days after infestation.

[7] = tested on: Bemisia tabaci (Cotton White Fly); experiment: Example B7: Activity against Bemisia tabaci (cotton white fly); assay type: in vivo; settings: foliar, 144 h, application rate 200 ppm, adult white flies on sprayed cotton leaf discs, 6 days after incubation
Protocol: Example B7: Activity Against Bemisia tabaci (Cotton White Fly)
Cotton leaf discs were placed on agar in 24-well microtiter plates and sprayed with aqueous test solutions prepared from 10′000 ppm DMSO stock solutions. After drying the leaf discs were infested with adult white flies. The samples were checked for mortality 6 days after incubation.

[8] = tested on: Frankliniella occidentalis (Western Flower Thrips); experiment: Example B8: Activity against Frankliniella occidentalis (western flower thrips); assay type: in vivo; settings: foliar, 168 h, application rate 200 ppm, sprayed sunflower leaf discs, mixed ages, 7 days after infestation
Protocol: Example B8: Activity Against Frankliniella occidentalis (Western Flower Thrips)
Sunflower leaf discs were placed on agar in 24-well microtiter plates and sprayed with aqueous test solutions prepared from […] stock solutions. After drying the leaf discs were infested with a Frankliniella population of mixed ages. The samples were assessed for mortality 7 days after infestation.

Compound	mortality at 200 ppm [1]	percent effect (mortality or growth inhibition) at 200 ppm [2]	percent effect (mortality or growth inhibition) at 200 ppm [3]	mortality at 24 ppm [4]	percent control (mortality, anti-feedant effect or growth inhibition) at 200 ppm [5]	percent effect (mortality or growth inhibition) at 200 ppm [6]	mortality at 200 ppm [7]	mortality at 200 ppm [8]	melting point
CCS(=O)(=O)c1cc(N(C)C(C)=O)cnc1-c1cc2cnn(CC(F)(F)C(F)(F)F)c2cn1 [Compound P2, N-[5-ethylsulfonyl-6-[1-(2,2,3,3,3-pentafluoropropyl)pyrazolo[3,4-c]pyridin-5-yl]-3-pyridyl]-N-methyl-acetamide]	≥ 80%	≥ 80%	≥ 80%	≥ 80%	≥ 80%	≥ 80%			
CCS(=O)(=O)c1cccnc1-c1cc2cnn(CC(F)(F)C(F)(F)F)c2cn1 [Compound P4, 5-(3-ethylsulfonyl-2-pyridyl)-1-(2,2,3,3,3-pentafluoropropyl)pyrazolo[3,4-c]pyridine]	≥ 80%	≥ 80%	≥ 80%	≥ 80%	≥ 80%	≥ 80%			
CCS(=O)(=O)c1cc(C(C)(C)C#N)cnc1-c1cc2cnn(CC(F)(F)C(F)(F)F)c2cn1 [Compound P5, 2-[5-ethylsulfonyl-6-[1-(2,2,3,3,3-pentafluoropropyl)pyrazolo[3,4-c]pyridin-5-yl]-3-pyridyl]-2-methyl-propanenitrile]	≥ 80%	≥ 80%	≥ 80%	≥ 80%	≥ 80%	≥ 80%	≥ 80%		
CCSc1cc(C(C)(C)C#N)cnc1-c1cc2cnn(CC(F)(F)C(F)(F)F)c2cn1 [Compound P6, 2-[5-ethylsulfanyl-6-[1-(2,2,3,3,3-pentafluoropropyl)pyrazolo[3,4-c]pyridin-5-yl]-3-pyridyl]-2-methyl-propanenitrile]	≥ 80%	≥ 80%	≥ 80%		≥ 80%	≥ 80%	≥ 80%	≥ 80%	
CCSc1cc(C2(C#N)CC2)cnc1-c1cc2cnn(CC(F)(F)C(F)(F)F)c2cn1 [Compound P10, 1-[5-ethylsulfanyl-6-[1-(2,2,3,3,3-pentafluoropropyl)pyrazolo[3,4-c]pyridin-5-yl]-3-pyridyl]cyclopropanecarbonitrile]		≥ 80%	≥ 80%		≥ 80%	≥ 80%		≥ 80%	
CCS(=O)(=O)c1cc(C2(C#N)CC2)cnc1-c1cc2cnn(CC(F)(F)C(F)(F)F)c2cn1 [Compound P11, 1-[5-ethylsulfonyl-6-[1-(2,2,3,3,3-pentafluoropropyl)pyrazolo[3,4-c]pyridin-5-yl]-3-pyridyl]cyclopropanecarbonitrile]	≥ 80%	≥ 80%	≥ 80%		≥ 80%	≥ 80%	≥ 80%	≥ 80%	
CCS(=O)(=O)c1ccc(N(C)C(C)=O)nc1-c1cc2cnn(CC(F)(F)C(F)(F)F)c2cn1 [Compound P12, N-[5-ethylsulfonyl-6-[1-(2,2,3,3,3-pentafluoropropyl)pyrazolo[3,4-c]pyridin-5-yl]-2-pyridyl]-N-methyl-acetamide]	≥ 80%	≥ 80%	≥ 80%	≥ 80%	≥ 80%	≥ 80%			
CCS(=O)(=O)c1ccc(N(C)C(=O)NC)nc1-c1cc2ccn(CC(F)(F)C(F)(F)F)c2cn1 [Compound P13, 1-[5-ethylsulfonyl-6-[1-(2,2,3,3,3-pentafluoropropyl)pyrrolo[2,3-c]pyridin-5-yl]-2-pyridyl]-1,3-dimethyl-urea]									214 to 217 °C
CCS(=O)(=O)c1ccc(-c2ncccn2)nc1-c1cc2cnn(CC(F)(F)C(F)(F)F)c2cn1 [Compound P25, 5-(3-ethylsulfonyl-6-pyrimidin-2-yl-2-pyridyl)-1-(2,2,3,3,3-pentafluoropropyl) pyrazolo[3,4-c]pyridine]	≥ 80%	≥ 80%	≥ 80%	≥ 80%	≥ 80%	≥ 80%		≥ 80%	
CCS(=O)(=O)c1cc(C(F)(F)F)cnc1-c1cc2cnn(CC(F)(F)C(F)(F)F)c2cn1 [Compound P31, 5-[3-ethylsulfonyl-5-(trifluoromethyl)-2-pyridyl]-1-(2,2,3,3,3-pentafluoropropyl) pyrazolo[3,4-c] pyridine]		≥ 80%	≥ 80%		≥ 80%	≥ 80%	≥ 80%		
CCS(=O)(=O)c1cc(C2(C#N)CC2)cnc1-c1cc2ncn(CC(F)(F)C(F)(F)F)c2cn1 [Compound P34, 1-[5-ethylsulfonyl-6-[3-(2,2,3,3,3-pentafluoropropyl)imidazo [4,5-c]pyridin-6-yl]-3-pyridyl]cyclopropane-carbonitrile]	≥ 80%	≥ 80%	≥ 80%	≥ 80%		≥ 80%			
CCS(=O)(=O)c1cc(C(C)(C)C#N)cnc1-c1cc2ncn(CC(F)(F)C(F)(F)F)c2cn1 [Compound P40, 2-[5-ethylsulfonyl-6-[3-(2,2,3,3,3-pentafluoropropyl)imidazo[4,5-c]pyridin-6-yl]-3-pyridyl]-2-methyl-propanenitrile]	≥ 80%	≥ 80%	≥ 80%	≥ 80%	≥ 80%	≥ 80%			
CCSc1cc(C(C)(C)C#N)cnc1-c1cc2ncn(CC(F)(F)C(F)(F)F)c2cn1 [Compound P47, 2-[5-ethylsulfanyl-6-[3-(2,2,3,3,3-pentafluoropropyl)imidazo[4,5-c]pyridin-6-yl]-3-pyridyl]-2-methyl-propanenitrile]		≥ 80%	≥ 80%			≥ 80%		≥ 80%	
